Experimental data reported in patent US9567304B2, “Quinazolinedione derivative” (Chugai Seiyaku Kabushiki Kaisha, priority 2012, dated 2017).

System: human endometrial cancer cell line MFE-280
Experiment: Measurement of antitumor effect in MFE-280 cancer-bearing mice
Type: in vivo
Conditions: 200 mg/kg, orally once daily, MFE-280 subcutaneous xenograft in BALB/c nude mice, 11th day after start of administration

CCS(=O)(=O)c1ccc(Cl)cc1Cn1c(=O)[nH]c2c(Cl)c(CN3CCNCC3)c(C(F)(F)F)cc2c1=O [Compound F-1, 8-Chloro-3-(5-chloro-2-ethanesulfonyl-benzyl)-7-piperazin-1-ylmethyl-6-trifluoromethyl-1H-quinazoline-2,4-dione]
Antitumor effect TGI after 11 days (%): 61%
